Source: patent publication US20120108557A1, “FLUOROQUINOLONE DERIVATIVES FOR OPHTHALMIC APPLICATIONS” (ALCON RESEARCH, LTD., priority 2008, published 2012)

Tests used:
Test in all cases: In vitro antimicrobial activity, agar dilution MIC
Type in all cases: cell-based
[1] = tested on: Escherichia coli
Protocol: (§1) The activity of the compounds of the present invention was evaluated using an in vitro assay. Microorganisms were prepared from growth on agar media, in broth culture, or from thawed cryopreserved cultures. Fungal cultures were filtered to remove mycelial elements.
(§2) Using Mueller Hinton II Broth, 0.9% saline or other appropriate media, a suspension of each culture was prepared and adjusted to a turbidity equivalent to that of a 0.5 McFarland Standard. (Cultures adjusted to the 0.5 McFarland Standard generally contain approximately 1.0×10^8 CFU/mL). The adjusted suspension for each culture was diluted 1:10 in the appropriate media so that the inoculum concentration approximates 1.0×10^7 CFU/mL.
(§3) The antimicrobial agent to be tested was weighed and diluted with a volume of sterile distilled water calculated to yield the necessary starting concentration. Serial 1:2 dilutions of the antimicrobial agent in sterile distilled water were prepared (approximately 10-12 test concentrations comprise a reasonable experimental range). A known amount of each antimicrobial dilution was combined with an aliquot of agar medium calculated to yield the desired final antimicrobial test concentration and dispensed onto plates.
(§4) The amount of antimicrobial agent to be weighed was determined using the following equation: […]
(§5) Antimicrobial stock solutions were prepared at concentrations 5-10 times the highest concentration to be tested (routinely 1024 μg/mL). […] The stock solution was diluted to appropriate concentration using sterile water to form a working solution. The working solution was diluted two-fold, in sterile water, until the desired concentration is obtained.
(§6) Mueller Hinton II agar was prepared as described by the manufacturer. Mueller Hinton II agar may be supplemented with 5% defibrinated sheep blood for testing streptococci. Agar was added to the serially diluted antimicrobial solution in each container. The solutions were mixed thoroughly and poured into petri dishes (about 25 mL/plate). The pH of the agar at 25° C. should be between 7.2 and 7.4.
(§7) At least one inocula control plate was inoculated (agar medium without antimicrobial agent) from each seed plate before inoculating test plates. Test plates were inoculated starting at the lowest concentration and proceeding to the highest concentration. After all test plates were inoculated, an additional control plate (agar medium without antimicrobial agent) was inoculated. The plates were incubated in a non-CO2 incubator (or CO2 incubator depending on growth requirements); 18-24 hours at 32-35° C. was sufficient for most organisms.
(§8) All inoculation points on the agar surface were examined for the presence of growth as compared to the inoculum control plates. The results were summarized and use to determine Minimal Inhibitory Concentrations (MICs): The MIC is the lowest concentration of the antimicrobial agent which prevents visible growth of the organism (negative score).

[2] = tested on: MSSA; details: test organism 6, MSSA
Protocol: as §1, §2, §3, §4, §5, §6, §7, §8

[3] = tested on: MRSA
Protocol: as §1, §2, §3, §4, §5, §6, §7, §8

[4] = tested on: Corynebacterium amycolatum
Protocol: as §1, §2, §3, §4, §5, §6, §7, §8

[5] = tested on: Enterobacter hormaechei
Protocol: as §1, §2, §3, §4, §5, §6, §7, §8

[6] = tested on: Staphylococcus aureus
Protocol: as §1, §2, §3, §4, §5, §6, §7, §8

[7] = tested on: Acinetobacter baumannii; details: test organism 26, Acinetobacter baumannii
Protocol: as §1, §2, §3, §4, §5, §6, §7, §8

[8] = tested on: Enterococcus faecalis
Protocol: as §1, §2, §3, §4, §5, §6, §7, §8

[9] = tested on: Staphylococcus epidermidis
Protocol: as §1, §2, §3, §4, §5, §6, §7, §8

[10] = tested on: Pseudomonas aeruginosa
Protocol: as §1, §2, §3, §4, §5, §6, §7, §8

[11] = tested on: Stenotrophomonas maltophilia
Protocol: as §1, §2, §3, §4, §5, §6, §7, §8

[12] = tested on: Staphylococcus haemolyticus
Protocol: as §1, §2, §3, §4, §5, §6, §7, §8

[13] = tested on: Morganella morganii
Protocol: as §1, §2, §3, §4, §5, §6, §7, §8

[14] = tested on: Serratia marcescens
Protocol: as §1, §2, §3, §4, §5, §6, §7, §8

[15] = tested on: Streptococcus mitis
Protocol: as §1, §2, §3, §4, §5, §6, §7, §8

[16] = tested on: MRSE
Protocol: as §1, §2, §3, §4, §5, §6, §7, §8

[17] = tested on: Acinetobacter junii
Protocol: as §1, §2, §3, §4, §5, §6, §7, §8

[18] = tested on: Streptococcus pneumoniae
Protocol: as §1, §2, §3, §4, §5, §6, §7, §8

[19] = test organism 32, Escherichia coli
[20] = test organism 33, Escherichia coli
[21] = test organism 34, Escherichia coli
[22] = test organism 24, Corynebacterium amycolatum
[23] = test organism 25, Corynebacterium amycolatum
[24] = test organism 31, Enterobacter hormaechei
[25] = test organism 1, Staphylococcus aureus
[26] = test organism 2, Staphylococcus aureus
[27] = test organism 15, Enterococcus faecalis
[28] = test organism 16, Enterococcus faecalis
[29] = test organism 17, Enterococcus faecalis
[30] = test organism 18, Enterococcus faecalis
[31] = test organism 7, Staphylococcus epidermidis
[32] = test organism 8, Staphylococcus epidermidis
[33] = test organism 37, Pseudomonas aeruginosa
[34] = test organism 38, Pseudomonas aeruginosa
[35] = test organism 41, Stenotrophomonas maltophilia
[36] = test organism 42, Stenotrophomonas maltophilia
[37] = test organism 12, Staphylococcus haemolyticus
[38] = test organism 13, Staphylococcus haemolyticus
[39] = test organism 14, Staphylococcus haemolyticus
[40] = test organism 35, Morganella morganii
[41] = test organism 36, Morganella morganii
[42] = test organism 39, Serratia marcescens
[43] = test organism 40, Serratia marcescens
[44] = test organism 21, Streptococcus mitis
[45] = test organism 22, Streptococcus mitis
[46] = test organism 23, Streptococcus mitis
[47] = test organism 27, Acinetobacter junii
[48] = test organism 28, Acinetobacter junii
[49] = test organism 29, Acinetobacter junii
[50] = test organism 19, Streptococcus pneumoniae
[51] = test organism 20, Streptococcus pneumoniae

Nc1c(F)c(N2CC3CCCNC3C2)c(F)c2c1c(=O)c(C(=O)O)cn2C1CC1 [Compound 3 (S,S)]
Minimal Inhibitory Concentration (MIC) [1, 19]: 0.06
Minimal Inhibitory Concentration (MIC) [1, 20]: ≦0.25
Minimal Inhibitory Concentration (MIC) [1, 21]: >4
Minimal Inhibitory Concentration (MIC) [2]: 4
Minimal Inhibitory Concentration (MIC) ([3]; test organism 3, MRSA): 1
Minimal Inhibitory Concentration (MIC) ([3]; test organism 4, MRSA): 2
Minimal Inhibitory Concentration (MIC) ([3]; test organism 5, MRSA): >2
Minimal Inhibitory Concentration (MIC) [4, 22]: 0.5
Minimal Inhibitory Concentration (MIC) [4, 23]: >4
Minimal Inhibitory Concentration (MIC) [5, 24]: 4
Minimal Inhibitory Concentration (MIC) [6, 25]: ≦0.03
Minimal Inhibitory Concentration (MIC) [6, 26]: ≦0.25
Minimal Inhibitory Concentration (MIC) [7]: ≦0.25
Minimal Inhibitory Concentration (MIC) [8, 27]: 0.125
Minimal Inhibitory Concentration (MIC) [8, 28]: 0.5
Minimal Inhibitory Concentration (MIC) [8, 29]: >4
Minimal Inhibitory Concentration (MIC) [8, 30]: >2
Minimal Inhibitory Concentration (MIC) [9, 31]: 0.5
Minimal Inhibitory Concentration (MIC) [9, 32]: 0.5
Minimal Inhibitory Concentration (MIC) [10, 33]: >4
Minimal Inhibitory Concentration (MIC) [10, 34]: 0.5
Minimal Inhibitory Concentration (MIC) [11, 35]: 2
Minimal Inhibitory Concentration (MIC) [11, 36]: 0.125
Minimal Inhibitory Concentration (MIC) [12, 37]: 0.125
Minimal Inhibitory Concentration (MIC) [12, 38]: 1
Minimal Inhibitory Concentration (MIC) [12, 39]: >4
Minimal Inhibitory Concentration (MIC) [13, 40]: 0.125
Minimal Inhibitory Concentration (MIC) [13, 41]: 1
Minimal Inhibitory Concentration (MIC) [14, 42]: 0.5
Minimal Inhibitory Concentration (MIC) [14, 43]: 1
Minimal Inhibitory Concentration (MIC) [15, 44]: ≦0.25
Minimal Inhibitory Concentration (MIC) [15, 45]: 0.125
Minimal Inhibitory Concentration (MIC) [15, 46]: 1
Minimal Inhibitory Concentration (MIC) ([16]; test organism 9, MRSE): >2
Minimal Inhibitory Concentration (MIC) ([16]; test organism 10, MRSE): >2
Minimal Inhibitory Concentration (MIC) ([16]; test organism 11, MRSE): >4
Minimal Inhibitory Concentration (MIC) [17, 47]: ≦0.25
Minimal Inhibitory Concentration (MIC) [17, 48]: 0.06
Minimal Inhibitory Concentration (MIC) [17, 49]: >4
Minimal Inhibitory Concentration (MIC) [18, 50]: 0.125
Minimal Inhibitory Concentration (MIC) [18, 51]: ≦0.25

CN1CCCC2CN(c3cc4c(cc3F)c(=O)c(C(=O)O)cn4C3CC3)CC21 (centres unmarked) [Compound 2]
Minimal Inhibitory Concentration (MIC) [1, 19]: 0.25
Minimal Inhibitory Concentration (MIC) [1, 20]: ≦0.25
Minimal Inhibitory Concentration (MIC) [1, 21]: >4
Minimal Inhibitory Concentration (MIC) [2]: >4
Minimal Inhibitory Concentration (MIC) ([3]; test organism 3, MRSA): >2
Minimal Inhibitory Concentration (MIC) ([3]; test organism 4, MRSA): >4
Minimal Inhibitory Concentration (MIC) ([3]; test organism 5, MRSA): >2
Minimal Inhibitory Concentration (MIC) [4, 22]: ≦0.03
Minimal Inhibitory Concentration (MIC) [4, 23]: >4
Minimal Inhibitory Concentration (MIC) ([5]; test organism 30, Enterobacter hormaechei): 0.25
Minimal Inhibitory Concentration (MIC) [5, 24]: >4
Minimal Inhibitory Concentration (MIC) [6, 25]: 0.125
Minimal Inhibitory Concentration (MIC) [6, 26]: ≦0.25
Minimal Inhibitory Concentration (MIC) [7]: ≦0.25
Minimal Inhibitory Concentration (MIC) [8, 27]: 1
Minimal Inhibitory Concentration (MIC) [8, 28]: ≦0.25
Minimal Inhibitory Concentration (MIC) [8, 29]: >4
Minimal Inhibitory Concentration (MIC) [8, 30]: >2
Minimal Inhibitory Concentration (MIC) [9, 31]: 2
Minimal Inhibitory Concentration (MIC) [9, 32]: >2
Minimal Inhibitory Concentration (MIC) [10, 33]: >4
Minimal Inhibitory Concentration (MIC) [10, 34]: >4
Minimal Inhibitory Concentration (MIC) [11, 35]: >4
Minimal Inhibitory Concentration (MIC) [11, 36]: 2
Minimal Inhibitory Concentration (MIC) [12, 37]: 1
Minimal Inhibitory Concentration (MIC) [12, 38]: >4
Minimal Inhibitory Concentration (MIC) [12, 39]: >4
Minimal Inhibitory Concentration (MIC) [13, 40]: 1
Minimal Inhibitory Concentration (MIC) [13, 41]: 2
Minimal Inhibitory Concentration (MIC) [14, 42]: 4
Minimal Inhibitory Concentration (MIC) [14, 43]: 4
Minimal Inhibitory Concentration (MIC) [15, 44]: ≦0.25
Minimal Inhibitory Concentration (MIC) [15, 45]: 0.5
Minimal Inhibitory Concentration (MIC) [15, 46]: >4
Minimal Inhibitory Concentration (MIC) ([16]; test organism 9, MRSE): >2
Minimal Inhibitory Concentration (MIC) ([16]; test organism 10, MRSE): >2
Minimal Inhibitory Concentration (MIC) ([16]; test organism 11, MRSE): >4
Minimal Inhibitory Concentration (MIC) [17, 47]: ≦0.25
Minimal Inhibitory Concentration (MIC) [17, 48]: 0.25
Minimal Inhibitory Concentration (MIC) [17, 49]: >4
Minimal Inhibitory Concentration (MIC) [18, 50]: 0.5
Minimal Inhibitory Concentration (MIC) [18, 51]: ≦0.25
